ChEMBL document CHEMBL4613209, “Quinolone hybrids and their anti-cancer activities: An overview” (Eur J Med Chem, 2019)
In brackets after ≈: the same amount, converted by molar mass.

Experiments:
MCF7 = assay: Cytotoxicity against human MCF7 cells assessed as reduction in cell viability; type: functional, cell-based; conditions: read-out: TD50 (the source's name)
DU-145 = assay: Cytotoxicity against human DU145 cells assessed as reduction in cell viability after 48 hrs by SRB assay; type: functional, cell-based; conditions: DU-145, 48 h
HL-60 [1] = assay: Cytotoxicity against human HL60 cells assessed as reduction in cell viability by MTT assay; type: functional, cell-based
L1210 [2] = assay: Cytotoxicity against mouse L1210 cells assessed as reduction in cell viability; type: functional, cell-based
OVCAR-3 = assay: Cytotoxicity against human OVCAR3 cells assessed as reduction in cell viability; type: functional; conditions: read-out: TD50 (the source's name)
SMMC-7721 [3] = assay: Antiproliferative activity against human SMMC7721 cells after 24 to 72 hrs by MTT assay; type: functional, cell-based
L1210 [4] = assay: Antiproliferative activity against mouse L1210 cells by MTT assay; type: functional, cell-based
KB = assay: Cytotoxicity against human KB cells assessed as reduction in cell viability; type: functional; conditions: read-out: TD50 (the source's name)
HL-60 [5] = assay: Antiproliferative activity against human HL60 cells after 24 to 72 hrs by MTT assay; type: functional, cell-based
HL-60 [6] = assay: Cytotoxicity against human HL60 cells assessed as reduction in cell viability; type: functional, cell-based
[7] = Toxicity in mouse xenografted with human CX-1 cells; conditions: in vivo
[8] = Cytotoxicity against human SW403 cells assessed as reduction in cell viability; type: functional; conditions: SW-403, read-out: TD50 (the source's name)
Hep 3B2 [9] = assay: Cytotoxicity against human Hep3B cells assessed as reduction in cell viability by MTT assay; type: functional, cell-based
Hep 3B2 [10] = assay: Cytotoxicity against human Hep3B cells assessed as reduction in cell viability; type: functional, cell-based
SMMC-7721 [11] = assay: Antiproliferative activity against human SMMC7721 cells by MTT assay; type: functional, cell-based
SMMC-7721 [12] = assay: Cytotoxicity against human SMMC7721 cells assessed as reduction in cell viability by MTT assay; type: functional, cell-based
PC-3 = assay: Cytotoxicity against human PC3 cells assessed as reduction in cell viability after 48 hrs by SRB assay; type: functional, cell-based; conditions: PC-3, 48 h
CAPAN-1 [13] = assay: Cytotoxicity against human Capan1 cells assessed as reduction in cell viability; type: functional, cell-based
[14] = Toxicity in mouse xenografted with human MB-9812 cells
HCT-8 = assay: Antiproliferative activity against human HCT8 cells after 48 hrs by MTT assay; type: functional, cell-based; conditions: HCT-8, 48 h
L1210 [15] = assay: Antiproliferative activity against mouse L1210 cells after 24 to 72 hrs by MTT assay; type: functional, cell-based
SMMC-7721 [16] = assay: Cytotoxicity against human SMMC7721 cells assessed as reduction in cell viability; type: functional, cell-based
HCT-116 = assay: Cytotoxicity against human HCT116 cells assessed as reduction in cell viability by SRB assay; type: functional, cell-based
L1210 [17] = assay: Cytotoxicity against mouse L1210 cells assessed as reduction in cell viability by MTT assay; type: functional, cell-based
CAPAN-1 [18] = assay: Cytotoxicity against human Capan1 cells assessed as reduction in cell viability by MTT assay; type: functional, cell-based

For `COc1cccc2c1C(=O)c1c(O)c3c(c(O)c1C2=O)C[C@@](O)(C(=O)CO)C[C@@H]3O[C@H]1C[C@H](N)[C@H](O)[C@H](C)O1` [DOXORUBICIN], which CC50 (MCF7) is on record?
The CC50 was 0.014 to 0.098 µg/mL (≈ 0.0258 to 0.18 µM).

And the IC50 (DU-145)?
Its IC50 is 0.4 µg/mL (≈ 0.736 µM).

What about the IC50 (HL-60 [1]) of the same compound?
The IC50 was 1.2 to 2.6 µM.

What about the IC50 (L1210 [2]) of the same compound?
Its IC50 is 1.6 to 3 µM.

And the CC50 (OVCAR-3)?
Its CC50 is 0.014 to 0.098 µg/mL (≈ 0.0258 to 0.18 µM).

And the IC50 (SMMC-7721 [3])?
Its IC50 is 2.5 µM.

And the IC50 (L1210 [4])?
The IC50 was 4.2 µM.

What about the CC50 (KB) of the same compound?
Its CC50 is 0.014 to 0.098 µg/mL (≈ 0.0258 to 0.18 µM).

What about the IC50 (HL-60 [5]) of the same compound?
Its IC50 is 3.6 µM.

And the IC50 (HL-60 [6])?
The IC50 was 3.5 µM.

What about the LD50 [7] of the same compound?
The LD50 was 11 mg/kg.

And the CC50 [8]?
The CC50 was 0.014 to 0.098 µg/mL (≈ 0.0258 to 0.18 µM).

What about the IC50 (Hep 3B2 [9]) of the same compound?
The IC50 was 1.8 to 3.5 µM.

What about the IC50 (Hep 3B2 [10]) of the same compound?
Its IC50 is 2.6 µM.

And the IC50 (SMMC-7721 [11])?
The IC50 was 2.3 µM.

What about the IC50 (SMMC-7721 [12]) of the same compound?
Its IC50 is 1.2 to 2.6 µM.

And the IC50 (PC-3)?
Its IC50 is 0.4 µg/mL (≈ 0.736 µM).

And the IC50 (CAPAN-1 [13])?
Its IC50 is 1.7 µM.

And the LD50 [14]?
The LD50 was 11 mg/kg.

And the IC50 (HCT-8)?
Its IC50 is 7.2 µM.

And the IC50 (L1210 [15])?
The IC50 was 1.7 µM.

What about the IC50 (SMMC-7721 [16]) of the same compound?
Its IC50 is 1.6 to 3 µM.

And the IC50 (HCT-116)?
Its IC50 is 0.0088 µM.

And the IC50 (L1210 [17])?
The IC50 was 1.2 to 2.6 µM.

What about the IC50 (CAPAN-1 [18]) of the same compound?
The IC50 was 1.8 to 3.5 µM.
